US11667673B2, “Therapeutically active compounds and their methods of use” (Servier Pharmaceuticals LLC, priority 2013, dated 2023)

Tested on: U87MG cells
Assay: Cellular assay for IDH1m inhibitors: inhibition of 2-HG production in U87MG cells (LC-MS)
Type: cell-based
Protocol: Cells (HT1080 or U87MG) are grown in T125 flasks in DMEM containing 10% FBS, 1× penicillin/streptomycin and 500 ug/mL G418 (present in U87MG cells only). They are harvested by trypsin and seeded into 96 well white bottom plates at a density of 5000 cell/well in 100 ul/well in DMEM with 10% FBS. […] Cells are incubated overnight at 37° C. in 5% CO2. The next day test compounds are made up at 2× the final concentration and 100 ul are added to each cell well. The final concentration of DMSO is 0.2% and the DMSO control wells are plated in row G. The plates are then placed in the incubator for 48 hours. […] The cell plate is placed back in the incubator for another 24 hours. At 72 hours post compound addition, 10 mL/plate of Promega Cell Titer Glo reagent is thawed and mixed. The cell plate is removed from the incubator and allowed to equilibrate to room temperature. Then 100 ul of Promega Cell Titer Glo reagent is added to each well of media. The cell plate is then placed on an orbital shaker for 10 minutes and then allowed to sit at room temperature for 20 minutes. The plate is then read for luminescence with an integration time of 500 ms.

Molecule | IC50 (Homo sapiens, U-87 MG, 48 h) [nM] | IC50 (inhibition of 2-HG production, U87MG cells, 48 hours) [nM]
O=C(NC1CCC(F)(F)CC1)[C@H](c1ccccc1Cl)N(C(=O)[C@@H]1CCC(=O)N1c1ncccn1)c1cccc(F)c1 [compound 4, (S)—N—((S)-1-(2-chlorophenyl)-2-((4,4-difluorocyclohexyl)amino)-2-oxoethyl)-N-(3-fluoro-phenyl)-5-oxo-1-(pyrimidin-2-yl)pyrrolidine-2-carboxamide] | < 100 | 
CN1C[C@@H](C(=O)N(c2cccc(F)c2)[C@H](C(=O)NC2CC(F)(F)C2)c2ccccc2Cl)N(c2cc(C#N)ccn2)C1=O [compound 79] | < 100 | 
(S)—N—((S)-1-(2-Chlorophenyl)-2-(3,3-difluorocyclobutylamino)-2-oxoethyl)-1-(3-cyanophenyl)-N-(1H-indazol-7-yl)-5-oxopyrrolidine-2-carboxamide [compound 186] |  | < 100
